{"source": "a melting point compilation (Tetko et al.; mined from patent text by program, amines drawn as free bases though some values may be those of a salt)"}
{"units": {"melting point": "°C"}}
{"compound": "CNC(=O)N1N=C(c2ccc(N)cc2)c2cc(Cl)ccc2CC1C", "note": "(centres undefined)", "melting point": "115 to 118"}
{"compound": "CCOC(=O)c1ncn2c1c(=O)[nH]c1cc(S(C)(=O)=O)ccc12", "melting point": "> 300"}
{"compound": "COc1cc(-c2nc(N)sc2CCC2CCCCC2)c(OC)cc1Cl", "melting point": "110 to 111"}
{"compound": "CC(=O)SCC(Cc1ccccc1)C(=O)NC(C)(C)C(=O)OCc1ccccc1", "note": "(centres undefined)", "melting point": "83 to 85"}
{"compound": "COc1ccc(-c2c(C=O)cc(OC)c(OC)c2OC)c(C=O)c1OS(C)(=O)=O", "melting point": "130 to 131"}
{"compound": "CCS(=O)(=O)c1ccc(-c2cnn(-c3cccc(Cl)c3)c(=O)c2C2CCCCC2)cc1", "melting point": "85 to 90"}
{"compound": "COc1cccc(C(=O)c2cc3ccc(OC)cc3o2)c1", "melting point": "63 to 65"}
{"compound": "Nc1ccc(C=Cc2nc3ccccc3nc2C=Cc2ccc(N)cc2)cc1", "melting point": "227 to 228"}
{"compound": "CCOC(=O)c1nnc(-c2cc3sc(C)c(N(C)S(=O)(=O)c4cccs4)c3[nH]2)s1", "melting point": 209}
{"compound": "CCCOc1ccc(COCCO)cc1-c1nc2c(CCC)nn(C)c2c(=O)[nH]1", "melting point": "101 to 102"}
{"compound": "COC(=O)c1ccc(OCCNC(=O)C2Cc3ccccc3N2S(=O)(=O)c2ccc(-c3ccc(F)cc3Cl)cc2)cc1F", "note": "(centres undefined)", "melting point": "71 to 76"}
{"compound": "Cc1cc2c(O)nc(O)nc2s1", "melting point": "> 300"}
{"compound": "Brc1cncc(-c2ccccc2Oc2ccccc2)c1", "melting point": 109}
{"compound": "CC(=O)Oc1c(C(C)(C)C)cc2c(c1C(C)(C)C)CC(C)(C)O2", "melting point": 97.7}
{"compound": "COc1ccc(CNc2nnc(Cl)c3ccc(C#N)cc23)cc1Cl", "melting point": "213 to 214"}
{"compound": "CN(C)CCN1C(=O)N2[C@H](c3cccc(O)c3)c3[nH]c4ccc(Br)cc4c3C[C@@]2(C)C1=O", "note": "(racemic)", "melting point": "286 to 288"}
{"compound": "CCCCCCCN(CC)C(=O)CCCc1ccc(NS(C)(=O)=O)cc1", "melting point": "54 to 55"}
{"compound": "Cc1ccccc1N1CCN(CCn2c(=N)sc3cc(OC(F)(F)F)ccc32)CC1", "melting point": 135}
{"compound": "CCOC(=O)CCCNc1cccc(Br)c1", "melting point": 65}
{"compound": "CN1CCN(C2=Nc3ccccc3Sc3ccccc32)C[C@H]1Cc1ccccc1", "melting point": "46 to 63"}
{"compound": "COc1ccc(OC(C)=O)cc1[N+](=O)[O-]", "melting point": "93 to 97"}
{"compound": "CC(C)(C)OC(=O)N1CCN(c2ccc(O)c(C=O)c2)CC1", "melting point": "84 to 86"}
{"compound": "CSc1c(-c2ccccc2)[nH]c2ccccc12", "melting point": 103}
{"compound": "CCOc1nn(-c2ccc(C(F)(F)F)cn2)cc1CCOc1ccccc1CC(=O)O", "melting point": "134 to 135"}
{"compound": "CN(C)C1CCc2[nH]c3cccc(Cl)c3c2C1", "note": "(centres undefined)", "melting point": "212 to 214"}
{"compound": "COCC(=O)C(=NNc1ccccc1F)C(=O)OC", "melting point": "121 to 126"}
{"compound": "CCOC(=O)c1cnc2nc3ccccc3n2c1O", "melting point": "309 to 310"}
{"compound": "Cc1cccc(Cc2ccc(-c3cnn4c(O)ncnc34)cc2C)c1", "melting point": "259 to 262"}
{"compound": "CCc1cccc(CC)c1NCC(=O)NN", "melting point": "71 to 73"}
{"compound": "C#CCN(C)CC1=Cc2ccccc2Oc2ccccc21", "melting point": "66 to 67"}
{"compound": "C=C(CC(=O)Nc1cccc(/C=C/c2nc(C3CCCCC3)cs2)c1)C(=O)O", "melting point": "187 to 189"}
{"compound": "CCc1nn(Cc2cccnn2)c(C(N)=O)c1NC(=O)c1cc(S(C)(=O)=O)ccc1OCC(C)C", "melting point": "196 to 200"}
{"compound": "COC(=O)CCc1ccc(OCC2CN(c3ccccc3)C(=O)O2)cc1", "note": "(centres undefined)", "melting point": "138 to 139"}
{"compound": "COC(=N)c1ccc(Br)cc1", "melting point": "64 to 65"}
{"compound": "CCO[C@@H]1[C@@H](OC)[C@H](C)O[C@@H](ON=Cc2ccc(C#Cc3ccc(OC(F)(F)F)cc3)cc2)[C@@H]1OC", "melting point": "82 to 87"}
{"compound": "Clc1ccc(CC[C@H]2CN(Cc3ccccc3)CCN2Cc2ccccc2)cc1", "melting point": "87 to 90"}
{"compound": "Cn1c2c(c3ccccc31)C(=O)C(CNC1=NCCN1)CS2", "note": "(centres undefined)", "melting point": "245 to 247"}
{"compound": "CC(C)C(C(N)=S)N(C)C(=O)OCc1ccccc1", "note": "(centres undefined)", "melting point": 130}
{"compound": "CN(C)CCNC(=O)c1cc(S(C)(=O)=O)c(Cl)cc1NCc1ccco1", "melting point": "102 to 105"}
{"compound": "CN(C)Cc1nc(C=O)nn1-c1ccc(Cl)cc1C(=O)c1ccccc1", "melting point": "178 to 181"}
{"compound": "CSc1ccc2nccn2n1", "melting point": "66 to 68"}
{"compound": "CCP(=O)(O)c1cc(Oc2ccc(C(F)(F)F)cc2Cl)ccc1[N+](=O)[O-]", "melting point": 99}
{"compound": "c1ccc2c(c1)CCc1ccccc1C2CCN1CCCC1", "melting point": "51 to 53"}
{"compound": "COc1ccc(Cn2nnnc2C(=O)Nc2cccc(N3CCCCC3)c2C#N)cc1", "melting point": "166 to 168"}
{"compound": "CCc1ccc(C2C(C#N)=C(CC(C)C)NC(C)=C2C(=O)OC(C)(C)C)cc1", "note": "(centres undefined)", "melting point": "165 to 166"}
{"compound": "O=C(c1ccc(O)cc1)c1cc(C(=O)c2ccc(O)cc2)cc([N+](=O)[O-])c1", "melting point": "230 to 232"}
{"compound": "CSC(=NNCCCCc1ncc(Br)cc1C)NC#N", "melting point": "127 to 128"}
{"compound": "c1ccc(CNCC2CCn3c(nc4ccccc43)S2)cc1", "note": "(centres undefined)", "melting point": "155 to 156"}
{"compound": "NC1=Nc2cc(Cl)ccc2Nc2cscc21", "melting point": "239 to 240"}
